The source of these data is patent US20220220128A1, “HETEROCYCLIC COMPOUNDS AS KINASE INHIBITORS, COMPOSITIONS COMPRISING THE HETEROCYCLIC COMPOUND, AND METHODS OF USE THEREOF” (JS Innopharm (Shanghai) Ltd, priority 2019, published 2022).

For one experiment, the system named is TT cells. As to the kind of experiment: TT Cell Proliferation Assay (WST-8, 8 days). The experiment is classed as cell-based. The following applies: Homo sapiens, TT, 192 h, growth inhibition in TT cells, read-out: TT Cellular Activity. The gist of the method: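 IC50 was derived from absorbance at 450 nm after 5 h with WST-8, following 8 days' incubation at 37 °C. Final compound levels spanned 0.0005–5 μM in 0.5% DMSO. TT cells were seeded at 6,000 per well in 10% FBS RPMI-1640 and left to attach for 24 h beforehand.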
A general note: Tetrazolium dyes change colour on reduction, which living cells bring about.

For the next experiment, the target named is T1, human KDR kinase (Homo sapiens, UniProt P35968).
T1 construct: purchased Carna 08-191
T1 sequence (P35968 20-1356): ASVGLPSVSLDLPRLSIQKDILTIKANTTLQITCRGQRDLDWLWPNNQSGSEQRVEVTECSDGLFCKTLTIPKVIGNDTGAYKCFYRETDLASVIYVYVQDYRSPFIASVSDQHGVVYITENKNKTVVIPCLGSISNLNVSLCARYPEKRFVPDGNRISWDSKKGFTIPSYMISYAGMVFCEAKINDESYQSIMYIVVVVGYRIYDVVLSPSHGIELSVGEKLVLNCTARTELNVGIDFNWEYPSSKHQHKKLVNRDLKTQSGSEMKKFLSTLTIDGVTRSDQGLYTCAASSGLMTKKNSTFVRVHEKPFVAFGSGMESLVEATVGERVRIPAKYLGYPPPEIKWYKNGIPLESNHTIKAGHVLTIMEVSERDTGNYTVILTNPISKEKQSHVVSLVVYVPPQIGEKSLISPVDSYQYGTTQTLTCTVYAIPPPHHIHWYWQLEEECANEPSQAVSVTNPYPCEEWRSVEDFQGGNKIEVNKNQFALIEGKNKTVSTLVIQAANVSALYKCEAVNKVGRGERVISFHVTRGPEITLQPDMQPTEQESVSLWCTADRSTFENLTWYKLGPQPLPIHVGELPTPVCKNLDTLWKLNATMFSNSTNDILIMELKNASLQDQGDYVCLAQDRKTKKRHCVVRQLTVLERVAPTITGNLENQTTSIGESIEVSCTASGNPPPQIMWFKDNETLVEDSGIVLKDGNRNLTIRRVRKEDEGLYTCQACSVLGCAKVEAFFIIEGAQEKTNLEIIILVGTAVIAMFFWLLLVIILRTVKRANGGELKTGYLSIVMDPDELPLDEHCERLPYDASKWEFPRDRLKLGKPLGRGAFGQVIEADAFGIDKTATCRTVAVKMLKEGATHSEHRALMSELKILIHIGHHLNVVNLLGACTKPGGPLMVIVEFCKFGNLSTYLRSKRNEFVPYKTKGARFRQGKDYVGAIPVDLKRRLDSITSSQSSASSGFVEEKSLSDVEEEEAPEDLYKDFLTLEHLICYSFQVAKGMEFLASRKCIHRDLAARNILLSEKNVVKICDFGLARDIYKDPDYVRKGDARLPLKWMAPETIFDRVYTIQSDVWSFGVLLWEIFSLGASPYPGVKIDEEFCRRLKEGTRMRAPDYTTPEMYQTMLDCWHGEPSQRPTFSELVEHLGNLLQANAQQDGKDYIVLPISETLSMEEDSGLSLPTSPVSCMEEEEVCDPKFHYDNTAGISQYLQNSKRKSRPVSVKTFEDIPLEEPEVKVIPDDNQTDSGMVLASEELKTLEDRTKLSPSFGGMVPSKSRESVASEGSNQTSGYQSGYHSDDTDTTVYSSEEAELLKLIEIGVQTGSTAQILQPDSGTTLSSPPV
As to the kind of experiment: KDR Kinase Assay (LanthaScreen TR-FRET enzymatic assay). Conditions: 1.2 nM KDR, 92 μM ATP. The experiment is classed as biochemical. The gist of the method:
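TR-FRET enzymatic format: after 15-min room-temperature compound pretreatment, 1.2 nM human KDR phosphorylated 3 μM FAM-P22 with 92 μM ATP (HEPES pH 7.5, 28° C., one hour). Reactions were quenched with EDTA buffer. IC50 came from nonlinear sigmoid fits of percent-of-vehicle signal ratios.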

The target in another experiment is T2, BAF3-KIF5B-RET cells (Homo sapiens, UniProt P07949).
T2 construct: fused on or other part: P33176 (Kinesin-1 heavy chain)
T2 sequence (P07949 whole entry, change not shown, the tested form may be a part): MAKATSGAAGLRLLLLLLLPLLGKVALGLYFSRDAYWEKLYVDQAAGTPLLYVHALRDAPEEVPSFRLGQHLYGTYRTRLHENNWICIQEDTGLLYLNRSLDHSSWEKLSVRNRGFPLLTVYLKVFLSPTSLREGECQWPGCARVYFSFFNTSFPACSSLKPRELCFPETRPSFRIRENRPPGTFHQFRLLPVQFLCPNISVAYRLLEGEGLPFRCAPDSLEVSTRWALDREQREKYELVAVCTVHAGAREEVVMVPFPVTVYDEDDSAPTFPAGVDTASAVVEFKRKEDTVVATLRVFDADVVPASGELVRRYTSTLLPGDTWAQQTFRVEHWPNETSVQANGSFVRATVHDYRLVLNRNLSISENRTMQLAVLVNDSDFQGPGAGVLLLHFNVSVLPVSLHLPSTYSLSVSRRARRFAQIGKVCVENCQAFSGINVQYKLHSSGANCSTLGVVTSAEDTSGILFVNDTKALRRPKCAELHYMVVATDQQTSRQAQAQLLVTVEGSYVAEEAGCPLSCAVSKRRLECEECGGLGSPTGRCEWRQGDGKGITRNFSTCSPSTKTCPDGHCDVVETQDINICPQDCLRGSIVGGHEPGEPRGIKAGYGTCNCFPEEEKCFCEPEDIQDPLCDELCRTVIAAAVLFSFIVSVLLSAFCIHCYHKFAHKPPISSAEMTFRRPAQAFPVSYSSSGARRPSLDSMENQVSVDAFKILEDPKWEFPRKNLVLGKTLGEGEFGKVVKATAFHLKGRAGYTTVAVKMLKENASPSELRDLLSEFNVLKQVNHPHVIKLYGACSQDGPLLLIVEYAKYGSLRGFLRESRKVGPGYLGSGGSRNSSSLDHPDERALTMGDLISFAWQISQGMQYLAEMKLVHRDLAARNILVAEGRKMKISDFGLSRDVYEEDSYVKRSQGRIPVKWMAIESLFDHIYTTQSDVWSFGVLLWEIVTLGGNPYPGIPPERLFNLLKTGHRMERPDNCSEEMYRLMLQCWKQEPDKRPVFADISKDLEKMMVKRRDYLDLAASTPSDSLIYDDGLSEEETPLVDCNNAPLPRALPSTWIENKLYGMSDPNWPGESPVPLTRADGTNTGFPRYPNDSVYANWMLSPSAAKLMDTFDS
As to the kind of experiment: BAF3-KIF5B-RET Cell proliferation assay (CellTiter-Glo, 72 hours). The experiment is classed as cell-based. The following applies: growth inhibition, read-out: BA/F3-KIF5B-RET Cellular activity. The procedure, abridged:
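Cells seeded at 2,000/well in RPMI-1640 with 10% FBS and left 24 h at 37 °C, then exposed 72 h to nine compound levels (final 1 μM down to 0.00015 μM, 0.1% DMSO). CellTiter-Glo luminescence gave viability versus DMSO wells, from which IC50 was fitted.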

For a further experiment, the target named is T3, human RET kinase (Homo sapiens, UniProt P07949).
T3 construct: purchased Carna 08-159
T3 sequence (P07949 29-1114): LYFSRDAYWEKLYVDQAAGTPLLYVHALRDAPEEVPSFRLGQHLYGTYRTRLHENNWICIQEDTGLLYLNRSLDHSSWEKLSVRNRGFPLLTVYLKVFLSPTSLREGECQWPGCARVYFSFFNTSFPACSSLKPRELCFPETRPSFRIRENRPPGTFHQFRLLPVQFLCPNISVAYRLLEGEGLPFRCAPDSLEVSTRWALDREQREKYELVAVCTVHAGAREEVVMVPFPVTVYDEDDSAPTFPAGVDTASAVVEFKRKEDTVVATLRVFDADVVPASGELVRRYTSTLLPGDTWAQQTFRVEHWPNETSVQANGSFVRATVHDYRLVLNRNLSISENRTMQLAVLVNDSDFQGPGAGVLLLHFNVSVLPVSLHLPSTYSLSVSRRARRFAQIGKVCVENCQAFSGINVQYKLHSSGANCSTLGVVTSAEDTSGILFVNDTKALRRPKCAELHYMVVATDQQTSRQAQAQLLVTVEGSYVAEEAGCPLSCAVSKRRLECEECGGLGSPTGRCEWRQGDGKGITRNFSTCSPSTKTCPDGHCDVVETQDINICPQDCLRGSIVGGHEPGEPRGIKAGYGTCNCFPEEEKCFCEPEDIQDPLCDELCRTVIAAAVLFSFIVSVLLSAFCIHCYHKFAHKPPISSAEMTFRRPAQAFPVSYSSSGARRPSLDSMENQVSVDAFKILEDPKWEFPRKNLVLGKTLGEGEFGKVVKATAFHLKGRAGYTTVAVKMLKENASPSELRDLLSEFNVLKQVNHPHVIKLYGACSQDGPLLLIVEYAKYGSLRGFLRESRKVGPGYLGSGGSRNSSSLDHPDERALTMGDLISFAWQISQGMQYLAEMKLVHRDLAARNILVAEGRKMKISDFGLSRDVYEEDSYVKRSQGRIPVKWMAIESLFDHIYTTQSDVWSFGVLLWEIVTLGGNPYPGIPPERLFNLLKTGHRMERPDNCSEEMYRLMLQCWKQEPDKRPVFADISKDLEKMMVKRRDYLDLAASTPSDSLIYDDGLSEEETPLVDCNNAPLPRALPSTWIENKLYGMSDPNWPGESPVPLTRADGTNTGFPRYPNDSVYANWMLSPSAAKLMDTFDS
Nature of the experiment: RET Kinase Assay (LanthaScreen TR-FRET enzymatic assay). Conditions: 7 nM RET, 23 μM ATP. The experiment is classed as biochemical. The procedure, abridged: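 TR-FRET enzymatic read-out using 23 μM ATP, 3 μM FAM-P2 substrate and 7 nM human RET, after 15-min compound pretreatment at room temperature and a 1 h reaction at 28° C in HEPES pH 7.5 buffer. Percent of DMSO control fitted to nonlinear sigmoid curves for IC50.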
(In general: Time-resolved FRET reads energy transfer from a long-lived donor to a nearby acceptor.)

Some results are limits rather than exact numbers.

Turning to `Cn1cc(-c2cc(-c3ccc(N4C[C@@H]5C[C@@](C)(NC(=O)c6ncccc6Cl)C[C@@H]5C4)nc3)c3c(C#N)cnn3c2)cn1` [Example 55, 3-chloro-N-((3aR,5s,6aS)-2-(5-(3-cyano-6-(1-methyl-1H-pyrazol-4-yl)pyrazolo[1,5-a]pyridin-4-yl)pyridin-2-yl)-5-methyloctahydro-cyclopenta[c]pyrrol-5-yl)picolinamide], the IC50 in the experiment with TT cells, against human KDR kinase and at human RET kinase was at most 10 nM in each case. Further, the GI50 at BAF3-KIF5B-RET cells is at most 10 nM.
Turning to `Cn1ccc(-c2cc(-c3ccc(N4C[C@@H]5C[C@@](C)(NC(=O)c6ncccc6Cl)C[C@@H]5C4)nc3)c3c(C#N)cnn3c2)n1` [Example 56, 3-chloro-N-((3aR,5s,6aS)-2-(5-(3-cyano-6-(1-methyl-1H-pyrazol-3-yl)pyrazolo[1,5-a]pyridin-4-yl)pyridin-2-yl)-5-methyloctahydro-cyclopenta[c]pyrrol-5-yl)picolinamide], the IC50 in the experiment on TT cells was at most 10 nM; at human KDR kinase it was 10 to 50 nM; on human RET kinase, at most 10 nM. The GI50 at BAF3-KIF5B-RET cells was at most 10 nM.
On to `Cn1cc(-c2cc(-c3cnc(N4C[C@@H]5C[C@@](C)(NC(=O)c6ncccc6Cl)C[C@@H]5C4)cn3)c3c(C#N)cnn3c2)cn1` [Example 61], for which the values for the IC50 in the experiment with TT cells, on human KDR kinase and against human RET kinase were at most 10 nM, 10 to 50 nM and at most 10 nM, respectively. Besides, the GI50 on BAF3-KIF5B-RET cells is at most 10 nM.
For the compound `Cn1ccc(-c2cc(-c3cnc(N4C[C@@H]5C[C@@](C)(NC(=O)c6ncccc6Cl)C[C@@H]5C4)cn3)c3c(C#N)cnn3c2)n1` [Example 70, 3-chloro-N-((3aR,5s,6aS)-2-(5-(3-cyano-6-(1-methyl-1H-pyrazol-3-yl)pyrazolo[1,5-a]pyridin-4-yl)pyrazin-2-yl)-5-methyloctahydrocyclopenta[c]pyrrol-5-yl)picolinamide], the IC50 was 10 to 50 nM in the experiment with TT cells, 10 to 50 nM on human KDR kinase and at most 10 nM on human RET kinase. For the same compound, the GI50 on BAF3-KIF5B-RET cells was at most 10 nM.
As for `Cn1cc(-c2cc(-c3ccc(N4C[C@@H]5[C@@H](CNC(=O)c6ncccc6Cl)[C@@H]5C4)nc3)c3c(C#N)cnn3c2)cn1` [Example 73, 3-chloro-N-(((1R,5S,6s)-3-(5-(3-cyano-6-(1-methyl-1H-pyrazol-4-yl)pyrazolo[1,5-a]pyridin-4-yl)pyridin-2-yl)-3-azabicyclo[3.1.0]hexan-6-yl)methyl)picolinamide], the IC50 with TT cells, at human KDR kinase and at human RET kinase was at most 10 nM in each case. Moreover, the GI50 at BAF3-KIF5B-RET cells was at most 10 nM.
Consider `CC(C)C(O)C(=O)NC[C@@H]1[C@H]2CN(c3ccc(-c4cc(-c5cnn(C)c5)cn5ncc(C#N)c45)cn3)C[C@@H]12` (stereo partly drawn) [Example 75, N-(((1R,5S,6s)-3-(5-(3-cyano-6-(1-methyl-1H-pyrazol-4-yl)pyrazolo[1,5-a]pyridin-4-yl)pyridin-2-yl)-3-azabicyclo[3.1.0]hexan-6-yl)methyl)-2-hydroxy-3-methylbutanamide], for which the IC50 in the experiment on TT cells was at most 10 nM; at human KDR kinase it was 10 to 50 nM; against human RET kinase, at most 10 nM. For the same compound, the GI50 on BAF3-KIF5B-RET cells was at most 10 nM.
For `Cn1cc(-c2cc(-c3ccc(N4C5CC6CC4CC(C(=O)Nc4ncccc4Cl)(C6)C5)nc3)c3c(C#N)cnn3c2)cn1` [Example 90, (1R,3S,5s,7s)-N-(3-chloropyridin-2-yl)-2-(5-(3-cyano-6-(1-methyl-1H-pyrazol-4-yl)pyrazolo[1,5-a]pyridin-4-yl)pyridin-2-yl)-2-azaadamantane-5-carboxamide], the IC50 in the experiment with TT cells, against human KDR kinase and at human RET kinase was at most 10 nM each time. Also, the GI50 on BAF3-KIF5B-RET cells was at most 10 nM.
